{"source": "patent US12116594B2", "about": "“Methods for differentiating cells” (BOND UNIVERSITY LTD, priority 2015, dated 2024)", "tested_on": "Mell hESC", "test": "Differentiation assay for small molecule differentiation of hESC to hESC-RPEC; ANEB outgrowths scored for % putative RPE morphology at day 14", "format": "cell-based, human", "excerpt": "FIG. 31 Establishment of differentiation conditions for hESC-RPEC differentiation using small molecules. (A): Differentiation assay for small molecule differentiation of Mell hESC to hESC-RPEC. […] (B): Optimal ANEB size determined between 1000-1500 cells/body. (C): Optimal window for both seeding ANEBs and switching to RDM is day 6. […] For each experiment, ANEB outgrowths were scored for % putative RPE morphology at day 14. Differentiation is represented as heat map scores (0=0%, 1=5-10%, 2=10-15%, 3=15-25%, 5=25-40%, 6=40-55%, 7=55-70%, 8=80+%).\nHESC cultures were prepared for differentiation by supplementing mTeSR™1 with 10 uM Y-27632 (Rock inhibitor) (Sigma) for at least one hour prior to single cell dissociation with TrypLE™ Express (Gibco), counted and replated onto plates pre-coated with reduced growth factor Matrigel™ (RGFMG) (Corning) at high density (150,000 cells/cm2) in mTeSR™1 medium, supplemented with 10 uM Y-27632 and cultured overnight. The following day, cultures were refed fresh mTeSR™1 medium, without Rock inhibitor cultured for another 18-48 hours, or until cell cultures were nearly confluent (FIG. 2). Subsequently, cells were cultured in Primary Differentiation Medium (PDM) (containing 100 nM LDN193189, 10 uM SB431542, 5 uM CKI-7, and supplemented with 10 mM Nicotinamide) for 45 hours, before being further supplemented with 10 uM Rock inhibitor for an hour (FIG. 3 A). Differentiating cultures were single cell dissociated using TryPLE™ Express, re-suspended in PDM supplemented with 10 mM Nicotinamide and 10 uM Rock inhibitor, and formed into 3D cell aggregates of approximately 1500 cells/aggregate, using the AggreWellP400 (StemCell Technologies) (FIG. 3B), and cultured overnight. After 12-18 hours, the cell aggregates. The cell aggregates were cultured in suspension in Corning® Costar® Ultra-Low attachment 6-well plates (Corning) in primary differentiation medium (with 10 mM Nicotinamide), until day 4 or day 6, to differentiate as generate 3D aggregates of hESC-derived eyefield cells (ANEBs) to eyefield progenitor cells (FIG. 4A). At day 6, ANEBs were re-seeded onto RGFMG coated plates in RPEC Differentiation Medium (RDM) (containing 250 nM IDE-2 and 3 uM CHIR99021). ANEBs attached to the plate and the outgrowths were assessed for the appearance of immature RPE-like morphology (FIG. 8). ANEB outgrowths were cultured in RDM until day 14. Some putative hESC-RPEC cultures were maintained in an undisrupted form on the plates, while others were single cell dissociated and re-plated onto RGFMG at 150,000 cells/cm2 and cultured in Base Medium 2 (BM2), or RPEC Culture Medium (RCM), both supplemented with 10 uM Y-27632 until medium change the following day. hESC-RPEC cultures that are not dissociated may be maintained in BM2, without further supplementation, or in RMM, to generate mature hESC-RPECs within 21-28 days of the differentiation process (FIG. 9).\nThe hESC methods of the invention relating to the differentiation of human SCs towards the eyefield progenitor cells, that are Rax+ on day 4 and day 6 (FIG. 6), which has been confirmed by qRT-PCR expression of Rax, LHX2, Pax6(−5a) (FIG. 7). […] FIG. 31 A is a summary of experimental conditions designed to test the ability of each molecule to contribute to efficient RPEC differentiation within a 14-day period. Primary differentiation was from day 0-day 6, followed by secondary differentiation, or RPE differentiation, from day 6 to day 14. Briefly, hESC differentiation to RPE in the absence of LDN is low. […] The role of CKI-7 on differentiation efficiency was tested in combination with a variety of combinations to determine the optimal signalling requirements for differentiation. The small molecule IDE-2 was tested for its ability to functionally replace Activin A in a context for which it had not previously been tested. […] Although the effect of NIC on hESC-RPEC differentiation was positive during differentiation towards to the eyefield, but negative after. […]", "key": {"[1]": {"conditions": "molecule used in primary differentiation conditions, day 0-day 6"}, "[2]": {"conditions": "molecule used in secondary (RPE) differentiation conditions, day 6 to day 14"}}, "note": "Entries after “also recorded” stand apart in the source; their conditions may differ."}
{"smiles": "NC(=O)c1cccnc1", "note": "[NIC, nicotinamide]", "values": [{"measurement": "hESC-RPEC differentiation (% putative RPE morphology at day 14)", "setting": "[1]", "result": "positive"}, {"measurement": "hESC-RPEC differentiation (% putative RPE morphology at day 14)", "setting": "[2]", "result": "suppresses RPEC differentiation; also recorded: negative"}]}
{"smiles": "O=C(O)CCCCCC(=O)NN=C1CCCC1", "note": "[IDE-2]", "values": [{"measurement": "hESC-RPEC differentiation by day 14", "setting": "combined use of IDE-2 with the GSK3b inhibitor, secondary differentiation day 6 to day 14", "result": "highest degree of hESC-RPEC differentiation"}, {"measurement": "hESC-RPEC differentiation (% putative RPE morphology at day 14)", "setting": "[2]", "result": "enhances RPEC differentiation"}]}
{"smiles": "NCCNS(=O)(=O)c1ccc(Cl)c2ccncc12", "note": "[CKI-7]", "values": [{"measurement": "hESC-RPEC differentiation (% putative RPE morphology at day 14)", "setting": "[1]", "result": "greatly enhanced; also recorded: further enhanced"}]}
{"smiles": "c1ccc2c(-c3cnn4cc(-c5ccc(N6CCNCC6)cc5)cnc34)ccnc2c1", "note": "[LDN, LDN193189]", "values": [{"measurement": "hESC-RPEC differentiation (% putative RPE morphology at day 14)", "setting": "[1]", "result": "improved differentiation"}]}
{"smiles": "Cc1c[nH]c(-c2cnc(NCCNc3ccc(C#N)cn3)nc2-c2ccc(Cl)cc2Cl)n1", "note": "[CHIR, CHIR99021]", "values": [{"measurement": "hESC-RPEC differentiation (% putative RPE morphology at day 14)", "setting": "[2]", "result": "essential for highly efficient RPEC differentiation"}]}
